The source of these data is patent US20130338367A1, “PYRAZOLE DERIVATIVES AND PESTICIDES” (Nissan Chemical Industries, Ltd., priority 2011, published 2013).

Holding throughout (format): in vivo
The test system of one test is Myzus persicae. As to the kind of experiment: Insecticidal Test on Myzus persicae. Conditions: foliar, 144 h. The method, then: (§1) Wet absorbent cotton was laid on glass dishes having an inner diameter of 3 cm, and covered with leaves of Canarium album cut into circles of the same diameter, and 4 apterous adults of Myzus persicae were released. After a day, 10% emulsifiable concentrates (or 10% wettable powders) of compounds of the present invention were diluted with water containing a spreader to obtain 500 ppm solutions, and the solution were sprayed from a rotary spray tower (2.5 mg/cm^2). The dishes were covered with lids and placed in an incubator at 25° C. 6 Days after, dead insects were counted, and the mortality was calculated by using the same equation as in Test Example 1. The test was carried out in duplicate.

In the next test the test system is Aphis gossypii. The test can be described thus: Insecticidal Test on Aphis gossypii. Conditions: foliar, 144 h. As to the method:
as §1, with “cucumber” for “Canarium album”, “Aphis gossypii” for “Myzus persicae”

A further test relates to Nilaparvata lugens. As to the kind of experiment: Insecticidal Test on Nilaparvata lugens. Conditions: 144 h. The method, then: 10% emulsifiable concentrates (or 10% wettable powders) of compounds of the present invention were diluted with water containing a spreader to obtain 500 ppm solutions. Rice sheaths were soaked in the solutions for about 10 seconds, dried in air and put in test tubes. In each tube, five 2nd-instar nymphs of Nilaparvata lugens were released, and the tubes were capped with sponge and placed in an incubator at 25° C. 6 Days after, dead insects were counted, and the mortality (%) (the number of dead insects÷the number of released insects×100) was calculated. The test was carried out in duplicate.

The subject of the next test is Bemisia argentifolii. The test can be described thus: Insecticidal Test on Bemisia argentifolii. Conditions: 120 h. As to the method: In styrol cups having an inner diameter of 7 cm, wet filter paper was laid, and kidney bean leaves cut to 3 cm were laid on the paper. 10% emulsifiable concentrates (or 10% wettable powders) of compounds of the present invention were diluted with water containing a spreader to obtain 500 ppm solutions. 2.5 ml of the solutions were sprayed from a rotary spray tower into the styrol cups (2.5 mg/cm^2). The leaves were dried in air, and adults of Bemisia argentifolii were released in the cups. The cups were closed and placed in an incubator at 25° C. 5 Days after, dead insects were counted, and the mortality was calculated by using the same equation as in Test Example 1. The test was carried out in duplicate.

The mark [1] stands for this setting: 500 ppm solution sprayed, apterous adults on leaf discs, 25° C., 6 days after, read-out: mortality.
The mark [2] stands for this setting: 500 ppm solution sprayed, apterous adults on cucumber leaf discs, 25° C., 6 days after, read-out: mortality.
[3] abbreviates: 500 ppm solution, rice sheaths soaked, 2nd-instar nymphs, 25° C., 6 days after, read-out: mortality (%).
The mark [4] stands for this setting: 500 ppm solution sprayed on kidney bean leaves, adults, 25° C., 5 days after, read-out: mortality.

Counter-ions that a name gives are not always drawn. Like-named read-outs stand apart in the source and are kept apart here.

As usually defined, the mortality is the percentage killed. For `O=C1C(Br)CCCN1c1cnn(-c2cccnc2)c1` (stereo not shown) [1-027, 3-bromo-1-{1-(pyridin-3-yl)-1H-pyrazol-4-yl}piperidin-2-one], the mortality at 500 ppm in the test on Myzus persicae (setting [1]) is at least 90%. Turning to `Cc1c(NC(=O)OC(C)(C)C)cnn1-c1cccnc1` [5-001, tert-butyl 5-methyl-1-(pyridin-3-yl)-1H-pyrazol-4-ylcarbamate], in the test on Aphis gossypii (setting [2]), the mortality at 500 ppm was at least 90%. For `FC(F)(F)CNc1cn(-c2cccnc2)nc1Cl` [B-012, 3-chloro-1-(pyridin-3-yl)-N-(2,2,2-trifluoroethyl)-1H-pyrazole-4-amine], in the test on Nilaparvata lugens (setting [3]), the mortality at 500 ppm was at least 90%. For the compound `CCSC(C)C(=NOC)Nc1cn(-c2cccnc2)nc1Cl` (stereo not shown) [1-356, N-{3-chloro-1-(pyridin-3-yl)-1H-pyrazol-4-yl}-2-(ethylthio)-N′-methoxypropanimidamide], the mortality at 500 ppm in the test on Nilaparvata lugens (setting [3]) and in the test on Bemisia argentifolii (setting [4]) was at least 90% each time. Regarding `CSCCCNc1cn(-c2cccnc2)nc1Cl` [C-001, 3-chloro-N-{3-(methylthio)propyl}-1-(pyridin-3-yl)-1H-pyrazole-4-amine], the mortality at 500 ppm in the test on Nilaparvata lugens (setting [3]) and in the test on Myzus persicae (setting [1]) was at least 90% each time. On to `CCNc1cn(-c2cccnc2)nc1C(F)(F)F` [B-018, N-ethyl-1-(pyridin-3-yl)-3-(trifluoromethyl)-1H-pyrazole-4-amine], for which the mortality at 500 ppm in the test with Nilaparvata lugens (setting [3]) and with Myzus persicae (setting [1]) was at least 90% throughout. Regarding `Cc1nn(-c2cccnc2)cc1N(C)C(=O)OC(C)(C)C` [1-012, tert-butyl methyl{3-methyl-1-(pyridin-3-yl)-1H-pyrazol-4-yl}carbamate], the mortality at 500 ppm with Nilaparvata lugens (in Oryza sativa), in the test with Bemisia argentifolii and in the test with Myzus persicae was at least 90% throughout. For `Nc1cn(-c2cccnc2)nc1Cl` [B-021, 3-chloro-1-(pyridin-3-yl)-1H-pyrazole-4-amine], the mortality at 500 ppm in the test on Nilaparvata lugens (setting [3]) was at least 90%. Consider `CCNc1cnn(C(C)(C)C)c1Cl` [H-001, 1-tert-butyl-5-chloro-N-ethyl-1H-pyrazole-4-amine hydrochloride], for which the mortality at 500 ppm with Myzus persicae (setting [1]) was at least 90%. For `CCSC(C)C(=O)N(CC)c1cnn(C(C)(C)C)c1Cl` (stereo not shown) [1-001, N-(1-tert-butyl-5-chloro-1H-pyrazol-4-yl)-N-ethyl-2-(ethylthio)propanamide], the mortality at 500 ppm in the test with Myzus persicae (setting [1]) and with Aphis gossypii (setting [2]) was at least 90% in each case. Consider `CC(C)(C)OC(=O)Nc1cnn(C(C)(C)C)c1Cl` [F-001, tert-butyl 1-tert-butyl-5-chloro-1H-pyrazol-4-ylcarbamate], for which, in the test with Nilaparvata lugens (setting [3]), the mortality at 500 ppm was at least 90%. `CSCCNc1cn(-c2cccnc2)nc1Cl` [C-002, 3-chloro-N-{2-(methylthio)ethyl}-1-(pyridin-3-yl)-1H-pyrazole-4-amine]: the mortality at 500 ppm with Nilaparvata lugens (setting [3]) and in the test with Myzus persicae (setting [1]) was at least 90% each time.

For the compound `CNc1cn(-c2cccnc2)nc1C` [A-001, N,3-dimethyl-1-(pyridin-3-yl)-1H-pyrazole-4-amine dihydrochloride], the mortality at 500 ppm in the test on Aphis gossypii (setting [2]) was at least 90%. `CCSC(C)C(=O)N(CC)c1c[nH]nc1Cl` (stereo not shown) [J-001, N-(3-chloro-1H-pyrazol-4-yl)-N-ethyl-2-(ethylthio)propanamide]: the mortality at 500 ppm in the test with Myzus persicae (setting [1]) is at least 90%. In the test with Myzus persicae, `CN(C(=O)OC(C)(C)C)c1cnn(C(C)(C)C)c1Cl` [G-002, tert-butyl 1-tert-butyl-5-chloro-1H-pyrazol-4-yl(methyl)carbamate] returned a mortality at 500 ppm of at least 90%. With `O=C(CCCCl)Nc1cn(-c2cccnc2)nc1Cl` [1-131, 4-chloro-N-{3-chloro-1-(pyridin-3-yl)-1H-pyrazol-4-yl}butanamide], in the test on Nilaparvata lugens (setting [3]), the mortality at 500 ppm is at least 90%. Take `C#CCNc1cn(-c2cccnc2)nc1Cl` [B-008, 3-chloro-N-(prop-2-ynyl)-1-(pyridin-3-yl)-1H-pyrazole-4-amine]: the mortality at 500 ppm in the test on Nilaparvata lugens (setting [3]), in the test with Myzus persicae (setting [1]) and in the test on Aphis gossypii (setting [2]) was at least 90% throughout. `Cc1nn(-c2cccnc2)cc1N` [A-009, 3-methyl-1-(pyridin-3-yl)-1H-pyrazole-4-amine dihydrochloride]: the mortality at 500 ppm with Myzus persicae (setting [1]) and in the test with Aphis gossypii (setting [2]) was at least 90% each time. Regarding `C=CC(=O)N(CC)c1cn(-c2cccnc2)nc1Cl` [1-152, N-{3-chloro-1-(pyridin-3-yl)-1H-pyrazol-4-yl}-N-ethylacrylamide], in the test on Bemisia argentifolii (setting [4]), the mortality at 500 ppm is at least 90%. For the compound `CSC1CCCN(c2cnn(-c3cccnc3)c2)C1=O` (stereo not shown) [1-028, 3-(methylthio)-1-{1-(pyridin-3-yl)-1H-pyrazol-4-yl}piperidin-2-one], the mortality at 500 ppm in the test with Nilaparvata lugens (setting [3]), in the test with Bemisia argentifolii (setting [4]), in the test on Myzus persicae (setting [1]) and with Aphis gossypii (setting [2]) was at least 90% throughout. For the compound `CCNc1cn(-c2cccnc2)nc1Cl` [A-004, 3-chloro-N-ethyl-1-(pyridin-3-yl)-1H-pyrazole-4-amine dihydrochloride], the mortality at 500 ppm in the test with Myzus persicae (setting [1]) is at least 90%.

Consider `C=C1CCN(c2cn(-c3cccnc3)nc2Cl)C1=O` [1-133, 1-{3-chloro-1-(pyridin-3-yl)-1H-pyrazol-4-yl}-3-methylenepyrrolidin-2-one], for which the mortality at 500 ppm in the test with Myzus persicae (setting [1]) is at least 90%. In the case of `CCCNc1cn(-c2cccnc2)nc1Cl` [B-006, 3-chloro-N-n-propyl-1-(pyridin-3-yl)-1H-pyrazole-4-amine], the mortality at 500 ppm in the test on Nilaparvata lugens (setting [3]), in the test on Myzus persicae (setting [1]) and in the test on Aphis gossypii (setting [2]) was at least 90% throughout. In the case of `O=C1CCCN1c1cn(-c2cccnc2)nc1Cl` [1-132, 1-{3-chloro-1-(pyridin-3-yl)-1H-pyrazol-4-yl}pyrrolidin-2-one], in the test with Myzus persicae (setting [1]), the mortality at 500 ppm was at least 90%.

In turn, `CN(C(=O)OC(C)(C)C)c1cn(-c2cccnc2)nc1Cl` [1-037, tert-butyl 3-chloro-1-(pyridin-3-yl)-1H-pyrazol-4-yl(methyl)carbamate] returned a mortality at 500 ppm in the test with Bemisia argentifolii of at least 90%.

For `Cc1nn(-c2cccnc2)cc1N` [B-009, 3-methyl-1-(pyridin-3-yl)-1H-pyrazole-4-amine], in the test with Nilaparvata lugens (setting [3]), the mortality at 500 ppm was at least 90%. With `CN(C1=NCCS1)c1cn(-c2cccnc2)nc1Cl` [3-001, N-{3-chloro-1-(pyridin-3-yl)-1H-pyrazol-4-yl}-N-methyl-4,5-dihydrothiazole-2-amine], in the test on Bemisia argentifolii (setting [4]), the mortality at 500 ppm was at least 90%.

Consider `CSCCCN(C(C)=O)c1cn(-c2cccnc2)nc1Cl` [1-153, N-{3-chloro-1-(pyridin-3-yl)-1H-pyrazol-4-yl}-N-{3-(methylthio)propyl}acetamide], for which the mortality at 500 ppm with Bemisia argentifolii (setting [4]) and in the test with Aphis gossypii (setting [2]) was at least 90% throughout.

As to `CCN(C(=O)OC(C)(C)C)c1cn(-c2cccnc2)nc1Cl` [1-056, tert-butyl 3-chloro-1-(pyridin-3-yl)-1H-pyrazol-4-yl(ethyl)carbamate], the mortality at 500 ppm with Bemisia argentifolii and in the test with Aphis gossypii was at least 90% each time. For the compound `CSCCC(=O)N(C)c1cn(-c2cccnc2)nc1C` [1-018, N-methyl-N-{3-methyl-1-(pyridin-3-yl)-1H-pyrazol-4-yl}-3-(methylthio)propanamide], the mortality at 500 ppm with Nilaparvata lugens (setting [3]) and in the test with Myzus persicae (setting [1]) was at least 90% each time. For `CNc1cn(-c2cccnc2)nc1Cl` [A-003, 3-chloro-N-methyl-1-(pyridin-3-yl)-1H-pyrazole-4-amine dihydrochloride], the mortality at 500 ppm in the test on Myzus persicae (setting [1]) is at least 90%. For the compound `CC(C)(C)OC(=O)Nc1cn(-c2cccnc2)nc1Br` [1-188, tert-butyl 3-bromo-1-(pyridin-3-yl)-1H-pyrazol-4-ylcarbamate], the mortality at 500 ppm in the test with Nilaparvata lugens (setting [3]) and in the test with Bemisia argentifolii (setting [4]) was at least 90% each time.

As for `CC(C)(C)OC(=O)Nc1cn(-c2cccnc2)nc1Cl` [1-046, tert-butyl 3-chloro-1-(pyridin-3-yl)-1H-pyrazol-4-ylcarbamate], the mortality at 500 ppm with Bemisia argentifolii (setting [4]) was at least 90%.
